Results published in ChEMBL document CHEMBL1781891, “An efficient preparation of N-alkyl-2-benzazepine derivatives and investigation of their biological activity” (Bioorg Med Chem Lett, 2009).
Calls of active or inactive are those of the source. No cut-off for these calls is given here.

System: HaCaT
Experiment: Induction of cell migration in human HaCaT cells at 30 uM by in vitro wound healing assay
Assay type: functional, cell-based

Row | SMILES | Activity
1 | COc1ccc2c(c1)CN(C)C(=O)C(C)C2 (stereo not drawn) | Active
2 | CCCCN1Cc2cc(OC)ccc2CC(C)C1=O (stereo not drawn) | inactive
3 | CCN1Cc2cc(OC)ccc2CC(C)C1=O (stereo not drawn) | Active
4 | CCCN1Cc2cc(OC)ccc2CC(C)C1=O (stereo not drawn) | inactive
5 | COc1ccc2c(c1)CNC(=O)C(C)C2 (stereo not drawn) | Active
6 | COc1ccc2c(c1)CN(Cc1ccccc1)C(=O)C(C)C2 (stereo not drawn) | inactive
7 | CCCCCN1Cc2cc(OC)ccc2CC(C)C1=O (stereo not drawn) | inactive
8 | COc1ccc2c(c1)CN(C(C)C)C(=O)C(C)C2 (stereo not drawn) | inactive
